89 compounds from PubChem BioAssay AID652053 (Broad Institute, 2013) can be followed below.

Molecules are shown by their SMILES.

For the assay, the system named is Huh7 psiCHECK-miR122 Renilla luciferase reporter, 48 h. Nature of the assay: miR-122 inhibitors in Huh7 reporter cells, dose response, cell-based, Huh7 psiCHECK-miR122, Renilla luciferase, cherry-pick (AID 652053).
As for `O=C(C[C@@H]1C[C@H]2c3cc(NS(=O)(=O)c4ccc(F)cc4)ccc3O[C@H]2[C@H](CO)O1)NCc1ccc(-c2ccccc2)cc1`, the AC40 is 5.24 µM.

For `COc1ccc(-c2c(O)c(C#N)c(-c3ccccc3)n(-c3ccc(OC)cc3)c2=O)cc1`, the AC40 is 20 µM.

Take `CCOC(=O)c1c(C)[nH]c(C)c1S(=O)(=O)NCCCc1ccco1`: the AC40 was 5.96 µM.

Regarding `C=CCNC(=O)c1ccccc1NC(=O)c1ccc(Cl)c(S(=O)(=O)Nc2cccc(C)c2C)c1`, the AC40 is 0.734 µM.

Regarding `CCc1cccc(NS(=O)(=O)c2ccc3c(c2)NC(=O)CO3)c1`, the AC40 is 7 µM.

Regarding `CCc1ccc(-c2cc(C)no2)cc1S(=O)(=O)NCCc1ccc(OC)c(OC)c1`, the AC40 was 7.43 µM.

Turning to `C=CCN(CC=C)S(=O)(=O)c1ccc2nc(NC(=O)C(C)C)sc2c1`, the AC40 is 8.29 µM.

In the case of `Cc1cccc(NS(=O)(=O)c2ccc3c(c2)OCCO3)c1`, the AC40 was 1.57 µM.

Consider `CCCn1c(N)c(C(=O)CSc2nnc(Cc3cccs3)n2C2CC2)c(=O)n(C)c1=O`, for which the AC40 is 7.17 µM.

Regarding `Cc1ccc(C)c(NS(=O)(=O)c2cc(C(=O)NCc3ccco3)ccc2C)c1`, the AC40 was 7.68 µM.

For `COc1ccc(OC)c(S(=O)(=O)Nc2ccc(C(C)=O)cc2)c1`, the AC40 is 1.58 µM.

Consider `Cc1ccc(N(CC(=O)NCc2cccs2)S(=O)(=O)c2cccs2)cc1`, for which the AC40 is 29 µM.

Regarding `O=S1(=O)CCC(NS(=O)(=O)c2ccc3ccccc3c2)C1` (centres undefined), the AC40 was 13.4 µM.

`Cc1cc(Cl)c(S(=O)(=O)Nc2ccc3c(c2)OCO3)cc1OCC(=O)NC1CCCCC1`: the AC40 is 5.8 µM.

Take `CC(=O)N1CCc2cc(Br)cc(S(=O)(=O)NCc3ccc(Cl)cc3)c21`: the AC40 was 4.29 µM.

On to `C[C@@H]1CN([C@H](C)CO)C(=O)Cc2cc(NC(=O)Nc3ccc4c(c3)OCO4)ccc2O[C@@H]1CN(C)C(=O)Nc1cccc2ccccc12`, for which the AC40 is 0.579 µM.

Take `CS(=O)(=O)N(CC(=O)Nc1ccc(Cl)c(Cl)c1)C1CCCCC1`: the AC40 was 13.5 µM.

For `Cc1ccccc1CC1(C)C(=O)Nc2ccc(S(=O)(=O)NC3CCCCC3)cc21` (centres undefined), the AC40 was 2.69 µM.

`COc1cccc(C2(c3cccc(OC)c3)CC2C(=O)Nc2ccc(F)cc2)c1` (centres undefined): the AC40 is 2.68 µM.

For `COc1ccc(NS(=O)(=O)c2cc(NC(=O)c3ccc(=O)[nH]c3)ccc2C)cc1`, the AC40 was 2.64 µM.

Regarding `O=S(=O)(NCCC1=CCCCC1)c1ccccc1Cl`, the AC40 is 3.9 µM.

Regarding `OC(c1ccc(Cl)c(F)c1)c1ncc(-c2cccc(F)c2)[nH]1` (centres undefined), the AC40 is 9.13 µM.

Take `Cc1cccc(C)c1NC(=S)NC(C)CCc1ccccc1` (centres undefined): the AC40 was 17 µM.

As for `COc1ccccc1NS(=O)(=O)c1cc(NC(=O)Nc2ccccc2)ccc1N1CCCCC1`, the AC40 is 1.37 µM.

Turning to `O=C(c1ccccc1)C(O)(Cc1ccccc1)c1ccccc1` (centres undefined), the AC40 is 8.14 µM.

For `CCC1=Nc2cc(C(=O)NCc3ccco3)ccc2Sc2ccc(C)cc21`, the AC40 is 4.49 µM.

For `C[C@H]1CN([C@@H](C)CO)C(=O)c2cccc(NC(=O)C3CCCCC3)c2O[C@@H]1CN(C)Cc1ccc(C(F)(F)F)cc1`, the AC40 was 0.547 µM.

In the case of `C[C@H](CO)N1C[C@H](C)[C@@H](CN(C)C(=O)Nc2ccc(F)cc2)Oc2c(NS(=O)(=O)c3ccccc3)cccc2C1=O`, the AC40 is 20.4 µM.

Consider `Cc1cccc(C(O)c2ncc(-c3ccccc3F)[nH]2)c1C` (centres undefined), for which the AC40 was 5.74 µM.

In the case of `CC(C)(C)C(=O)Nc1cc(S(=O)(=O)Nc2ccc(Cl)cc2)ccc1O`, the AC40 was 13.8 µM.

`CCc1ccc(NC(=O)Cc2cn(C)c3ccccc23)cc1`: the AC40 is 28.8 µM.

For `CCCCNS(=O)(=O)c1ccc2nc(-c3cccnc3)cc(C(=O)NCCOC)c2c1`, the AC40 was 1.18 µM.

For `O=C(NNS(=O)(=O)c1ccc(Cl)cc1)c1cccs1`, the AC40 is 16.6 µM.

Turning to `CCC(C)c1ccc(NC(=S)NCc2cccs2)cc1` (centres undefined), the AC40 is 10.1 µM.

As to `CN(Cc1ccccc1)S(=O)(=O)c1ccc(NC(=S)NC(=O)C2CCCCC2)cc1`, the AC40 is 13.4 µM.

In the case of `CCN(CC)C(=S)Nc1ccc(Cl)c(Cl)c1`, the AC40 is 16 µM.

On to `C[C@@H]1CN([C@H](C)CO)C(=O)c2cc(N(C)C)ccc2O[C@H]1CN(C)Cc1ccc(C(=O)Nc2ccccc2N)cc1`, for which the AC40 is 1.96 µM.

Consider `CC(C)C(=O)Nc1cc(S(=O)(=O)Nc2cccc(Cl)c2)ccc1Cl`, for which the AC40 is 1.52 µM.

Turning to `O=S1(=O)N=CN(Cc2cccc(F)c2)c2ccccc21`, the AC40 is 3.02 µM.

As to `Cc1ccc(S(=O)(=O)Nc2ccc(C(=O)Nc3cc(C)on3)cc2)cc1`, the AC40 was 1.44 µM.

As for `CCc1ccc(OC)c(S(=O)(=O)Nc2ccccc2C)c1`, the AC40 is 1.03 µM.

Regarding `Nc1c(S(=O)(=O)c2cccs2)c2nc3ccccc3nc2n1Cc1ccccc1`, the AC40 was 1.86 µM.

With `C[C@H]1CN([C@@H](C)CO)S(=O)(=O)c2ccc(C#CCN(C)C)cc2O[C@@H]1CN(C)Cc1ccc2c(c1)OCO2`, the AC40 was 3.68 µM.

On to `Cc1cc(S(=O)(=O)Nc2cccc(Cl)c2)c(C)s1`, for which the AC40 is 0.486 µM.

Regarding `C[C@H](CO)N1C[C@H](C)[C@@H](CN(C)Cc2ccc(C(F)(F)F)cc2)Oc2c(NC(=O)c3cnccn3)cccc2C1=O`, the AC40 is 1.43 µM.

On to `COc1ccc(S(=O)(=O)NCCSC(C)(C)C)c(Cl)c1Cl`, for which the AC40 is 8.16 µM.

As for `C[C@@H]1CN([C@H](C)CO)C(=O)c2cccc(NC(=O)C3CC3)c2O[C@H]1CN(C)Cc1ccc(C(F)(F)F)cc1`, the AC40 was 4.08 µM.

Regarding `CCCCNS(=O)(=O)c1ccc(OC)c(Cl)c1Cl`, the AC40 is 3.99 µM.

Take `CCOc1ccc(S(=O)(=O)/N=C(/Nc2ccc(C)c(S(=O)(=O)N3CCOCC3)c2)c2ccccc2)cc1`: the AC40 is 2.23 µM.

As to `CC(C)c1ccc(S(=O)(=O)Nc2ccc3c(c2)OCO3)cc1`, the AC40 is 2.71 µM.

Consider `CCNc1ccc(S(=O)(=O)N(C)C)cc1NCC(=O)Nc1ccc(F)c(Cl)c1`, for which the AC40 was 1.45 µM.

Regarding `COc1cccc(S(=O)(=O)Nc2ccc(C(O)(C(F)(F)F)C(F)(F)F)cc2)c1`, the AC40 was 4.24 µM.

With `CCN(CC(=O)NCc1cccs1)C(=O)c1cccc(S(=O)(=O)Nc2cccc(C)c2)c1`, the AC40 is 6.04 µM.

With `O=C(COc1ccc(S(=O)(=O)NC2CCCCC2)cc1)NC1CCCC1`, the AC40 was 8.46 µM.

For `COc1cc(NS(=O)(=O)c2ccc3c(c2)C(C)(C)C(=O)N3C)cc(OC)c1`, the AC40 was 2.85 µM.

Consider `CCCC(C)NS(=O)(=O)c1ccc(OC)c(C)c1` (centres undefined), for which the AC40 was 10 µM.

On to `Cc1ccc(C)c(S(=O)(=O)Nc2ccc(C(=O)N3CCC3)cc2)c1`, for which the AC40 was 2.82 µM.

As for `CCOC(=O)c1c(C)[nH]c(C)c1S(=O)(=O)NCCc1ccco1`, the AC40 is 2.96 µM.

With `C[C@H]1CN([C@@H](C)CO)C(=O)c2cccc(NC(=O)Nc3ccccc3)c2O[C@@H]1CN(C)Cc1ccc(C(=O)Nc2ccccc2N)cc1`, the AC40 was 11.3 µM.

For the compound `O=C(c1ccccc1F)N1C[C@@H]2[C@H](c3ccccc31)[C@H](CO)N2C(=O)c1ccc(F)cc1`, the AC40 was 21 µM.

Regarding `Cc1cccc(C(=O)Nc2cccc(S(=O)(=O)NCc3ccco3)c2)c1`, the AC40 was 3.29 µM.

In the case of `COc1cc(S(=O)(=O)NC2CCCCC2)c(C)cc1C`, the AC40 was 0.686 µM.

`CC(=O)N1CCOc2ccc(S(=O)(=O)NCCc3cccc(C)c3)cc21`: the AC40 was 4.01 µM.

With `COc1ccccc1N(CC(=O)N1CCCCC1C)S(=O)(=O)c1ccc(Cl)cc1` (centres undefined), the AC40 is 2.31 µM.

In the case of `Cc1cccc(NS(=O)(=O)c2ccc(C3CCCCC3)cc2)c1`, the AC40 is 13.2 µM.

As to `CN1C(=O)c2cc(NC(=O)Cc3ccccc3)ccc2OC[C@@H]2O[C@H](CC(=O)NCc3ccc(Cl)cc3)CC[C@@H]21`, the AC40 is below 0.26 µM.

As for `CCN(CC)C(=O)CN(c1cc2c(cc1OC)oc1ccccc12)S(=O)(=O)c1ccccc1`, the AC40 is 1.69 µM.

Regarding `C[C@@H]1CN([C@H](C)CO)S(=O)(=O)c2ccc(-c3ccc(F)cc3)cc2O[C@@H]1CN(C)Cc1ccccc1C(=O)O`, the AC40 was 5.45 µM.

For `Cc1ccc(S(=O)(=O)N/N=C/c2ccc(OCC(=O)Nc3ccccc3Cl)cc2)cc1`, the AC40 was 5.89 µM.

`Cc1ccc(C(=O)Nc2ccc(Cl)cc2C(=O)c2ccccc2)cc1`: the AC40 is 18.6 µM.

Regarding `CC(C)CNS(=O)(=O)c1ccc(CCC(=O)NCCC2=CCCCC2)cc1`, the AC40 is 23 µM.

Take `CC(C)C(=O)NC(=S)Nc1ccc(S(=O)(=O)Nc2ccccc2)cc1`: the AC40 was 0.461 µM.

As to `COc1ccc(-c2nc3ccccn3c2NC2CCCCC2)cc1SC1CCCCC1`, the AC40 was 7.13 µM.

For `C[C@H]1CN([C@@H](C)CO)C(=O)c2cccc(NC(=O)C3CCOCC3)c2O[C@@H]1CN(C)Cc1ccc2c(c1)OCO2`, the AC40 is 18.2 µM.

For `O=S(=O)(NCC1CCCO1)c1ccc(Cl)c(C(F)(F)F)c1` (centres undefined), the AC40 was 7.84 µM.

For the compound `C[C@@H]1CN([C@H](C)CO)C(=O)c2cccc(NC(=O)Nc3ccccc3)c2O[C@H]1CN(C)Cc1ccc(C(F)(F)F)cc1`, the AC40 was 3.22 µM.

Regarding `CN1CCN(C(=O)c2cc3nc(-c4ccccc4)cc(-c4ccccc4)n3n2)CC1`, the AC40 was 2.23 µM.

On to `C[C@H](CO)N1C[C@H](C)[C@@H](CN(C)Cc2ccc3c(c2)OCO3)Oc2c(NC(=O)c3ccncc3)cccc2C1=O`, for which the AC40 is 13.1 µM.

As to `O=C(C(=O)N(Cc1ccccc1)Cc1ccccc1)c1c(-c2ccccc2)[nH]c2ccccc12`, the AC40 was 1 µM.

For the compound `O=C(Cc1ccccc1)N1C[C@@H]2[C@H](c3ccccc31)[C@H](CO)N2C(=O)Nc1ccc(F)cc1`, the AC40 was 4.71 µM.

For the compound `CCOc1ccc(Br)cc1S(=O)(=O)Nc1ccc(Cl)c(S(=O)(=O)N(CC)c2ccccc2)c1`, the AC40 was 4.18 µM.

In the case of `Cc1ccc(OC(C)C(=O)Nc2ccc(C)c(S(=O)(=O)Nc3ccc(C)cc3C)c2)cc1` (centres undefined), the AC40 was 12.5 µM.

`COc1ccc(C)cc1S(=O)(=O)NC1CCCCC1C` (centres undefined): the AC40 was 3.25 µM.

For the compound `O=C(Nc1ccc(S(=O)(=O)NCCc2ccccc2)cc1)c1ccc(Br)o1`, the AC40 was 0.54 µM.

Regarding `CCCCNS(=O)(=O)c1ccc2nc(-c3cccnc3)cc(C(=O)NC(C)CC)c2c1` (centres undefined), the AC40 was 0.387 µM.

As to `COc1ccc2nc(Nc3nc(CSc4nc5ccccc5[nH]4)cc(=O)[nH]3)nc(C)c2c1`, the AC40 was 9.96 µM.

With `Cc1ccc(C(=O)Nc2ccc(C)c(S(=O)(=O)Nc3ccccc3Cl)c2)s1`, the AC40 was 3.03 µM.

As to `COc1ccc2oc(C(=O)N3CCc4ccccc43)c(C)c2c1`, the AC40 is 5.37 µM.

As to `Cc1cc(C)c(S(=O)(=O)Nc2ccc3c4c(cccc24)CC3)c(C)c1`, the AC40 was 7.76 µM.
